In patent publication US8193224B2, “Medicinal composition for prevention or treatment of parasitic protozoan infection” (Fujifilm Corporation, priority 2004, dated 2012):
Read-outs that look alike come from different tables or passages of the source.

Assays:
Type in all cases: cell-based
[1] = tested on: Plasmodium falciparum FCR-3 strain; test: Drug sensitive-Plasmodium falciparum growth inhibition screening test; details: for EC50: Plasmodium falciparum, FCR3, Erythrocyte, read-out: 50% growth inhibition concentration P. falciparum FCR; for Selective toxicity: chemotherapy index = EC50 mouse FM3A cells / EC50 drug sensitive P. falciparum
Method: In the present example, protozoa of Plasmodium falciparum FCR-3 strain was used. RPMI-1640 medium sterilized with a filter was used in the experiment. pH was adjusted to 7.4, and human serum was added to be 10%. Malarial parasites were cultured under 5% O2 concentration, 5% CO2 concentration, 90% N2 concentration, and at a temperature of 36.5° C.
Cultured malarial parasite infected-erythrocytes were collected by centrifugation, and washed in a medium containing serum. Non-infected erythrocytes were added so that the primary infection rate is 0.3%. Hematocrit level at that time was 3%. The compounds of the present invention to be used in the test and the positive target drugs (chloroquine, quinine) were dissolved in dimethylsulfoxide (DMSO) to make a test solution of a predetermined concentration. The test solution was added in an amount of 5 to 10 μl in a 24-well culture plate. To the control, DMSO was added in an amount of 10 μL/well. Test solutions were taken by duplicates. Subsequently, Plasmodium falciparum culture solution previously prepared to a predetermined concentration was added, pipetted quietly, and suspended in the medium similarly. Culture plate was cultured for 72 hours in a CO2—O2—N2(5%, 5%, 90%) incubator. Thin layer smear preparations were prepared for each well, and after performing Diff-Quick staining, the preparations were measured with a microscope (oil immersion, 1,000×), and malarial parasite infection rates of the test solution added-group and of the control group were calculated. Growth inhibition rate was calculated with the following formula from the malarial parasite infection rate obtained in the above, to obtain a 50% growth inhibition concentration (EC50). Growth inhibition rate (%)={1−(b−a)/(c−a)}×100 a: early infection rate b: infection rate when test solution was added c: infection rate of the control

[2] = Growth inhibition test of mouse FM3A cells
Method: F28-7 strain which is a wild-type of the mouse breast cancer derived FM3A cell was used. As for a medium, immobilized fetal bovine serum was added to a ES medium at 2%, which medium was cultured under CO2 concentration 5%, at 37° C. Doubling time of FM3A cells under that condition was approximately 12 hours. Pre-culture was conducted and cells which have entered the logarithmic growth phase were diluted in a medium to be 5×10^4 cells/mL Those prepared when measuring malarial activity were used as a sample. Sample solution was added in an amount of to 10 μL in a 24-well culture plate (the final concentration was 1×10^−4 to 1×10^−5, by adding media etc). Compounds were taken by duplicates, and wells added with 10 μL DMSO were prepared at the same time as a control. Next, cultured cell suspension previously prepared was added in an amount of 990 to 995 μL, pipetted quietly and suspended in a medium similarly. After culturing 48 hours, the cells were counted with a cell controller (CC-108, Toa. Medical Electrics) for each well. Growth rate was calculated with the following formula, to obtain a 50% growth inhibition rate (EC50). Growth rate (%)={(C−A)/(B−A)}×100 A: primary cell count B: cell count of the control, 2 days after C: cell count of wells added with a sample, 2 days after
Cell growth inhibiting activity was calculated from cell count of wells added with a sample, and cell count of the control.

[3] = Growth inhibition test of rat L6 cells; details: L6 cells (rat skeletal myoblast)
Method: Rat derived-L6 cells (rat skeletal myoblast cell) were used. As medium, RPMI1640 medium was supplemented so that L-glutamin (200 mM) is 1%, and fetal bovine serum 10%, and the medium was cultured under CO2 concentration 5%, at 37° C. The compounds of the present invention and the target drugs to be used in the test were dissolved in DMSO, to make a test solution of a predetermined concentration. Pre-culture was conducted and medium containing cells which have entered the logarithmic growth phase was taken to wells of a 96-well culture plate. Then, a test solution containing drug of a predetermined concentration or a drug-free DMSO was added. Test solutions were taken by duplicates. Culture plate was cultured for 72 hours in an incubator, to test the growth inhibition activity. Test was conducted as follows.
10 μl of Alamar Blue aqueous solution was added to each well, and the resultant was further cultured for 2 hours. Next, the culture plate was placed on a fluorescent micro-plate reader (Spectramax Gemeni XS; US Molecular Device), radiated at an excited wavelength of 536 nm. Fluorescent intensity was measured at 588 nm, and residual rate of L6 cells of the test solution added group, and that of the control was calculated. Based on the cell residual rate obtained in the above, growth inhibition rate to L6 cells was calculated, to obtain a 50% growth inhibition concentration (EC50). Growth inhibition rate (%)={(C−A)/(B−A)}×100 A: primary cell count B: cell count of control, 3 days after C: cell count of wells added with a sample, 3 days after […]

[4] = tested on: Leishmania donovani (MHOM/ET/67/L82 strain); test: Leishmania protozoa growth inhibition screening test; details: Leishmania donovani; MHOM/ET/67/L82 strain amastigote, pH 5.4, 72 hours, Alamar Blue; read-out: 50% growth inhibition concentration Leishmania donovani
Method: In the present example, Leishmania donovani (MHOM/ET/67/L82 strain) was used. Protozoa was subcultured in Syrian Golden hamster, from which an amastigote was obtained. In the experiment, SM medium supplemented with 10% heat-treated bovine fetal serum was used, which was adjusted to pH 5.4, and cultured in an atmosphere of 5% CO2 concentration, at 37° C.
The compounds of the present invention to be used in the present test and the positive target drug (miltefosine) were dissolved in DMSO to make a test solution of a predetermined concentration. After adding a medium containing a predetermined number of protozoa to wells of a 96-well culture plate and pre-treating, concentration of the amastigote was measured with CASY cell analysis system (Scharfe, Germany). Then, test solution containing a drug of a predetermined concentration or a drug-free DMSO was added. Test solutions were taken by duplicates. After culturing the culture plate for 72 hours in an incubator, growth inhibition activity was tested. Test was conducted as follows.
10 μL of Alamar Blue aqueous solution was added to each well, and the resultant was further cultured for 2 hours. Next, the culture plate was placed on a fluorescent micro-plate reader (Spectramax Gemeni XS; US Molecular Device), radiated at an excited wavelength of 536 nm. Fluorescent intensity was measured at 588 nm, and infection rate of leishmania protozoa of the test solution added-group and control was calculated, to obtain a 50% growth inhibition concentration (EC50). Growth inhibition rate (%)={1−(b−a)/(c−a)}×100 a: early infection rate b: infection rate when test solution was added c: infection rate of the control

[5] = tested on: Trypanosoma cruzi (Tulahuen C2C4 strain); test: American trypanosome protozoa growth inhibition screening test
Method: In the present example, amastigote and trypomastigote infected with rat L6 cells of protozoa of Trypanosoma cruzi (Tulahuen C2C4 strain) were used. As medium used in the test, RPMI 1640 medium containing L6 cells was supplemented so that L-glutamine (200 mM) becomes 1%, fetal bovine serum becomes 10%, which was cultured under CO2 concentration 5%, at 37° C.
The compounds of the present invention to be used in the test and the positive target agent (benznidazole) were dissolved in DMSO to make a test solution of a predetermined concentration. A medium containing 5×10^3 protozoa was added to wells of a 96-well culture plate, and pre-cultured for 48 hours. After replacing the medium, test solution containing drug of a predetermined concentration or a drug-free DMSO was added. Test solutions were taken by duplicates. After culturing the culture plate in an incubator for 96 hours, growth inhibition activity was tested. Test was conducted as follows.
50 μL of CPRG/Nonidet was added to each well, and allowed to rest for 2 to 6 hours. Next, the culture plate was placed on a fluorescent micro-plate reader, and the absorbance was measured at 540 nm. Growth inhibition rate was calculated with the following formula based on the protozoan infection rate which was obtained by calculating trypanosome infection rate of the test solution added group and control group, to obtain a 50% growth inhibition concentration (EC50). Growth inhibition rate (%)={1−(b−a)/(c−a)}×100 a: early infection rate b: infection rate when test solution was added c: infection rate of the control

[6] = tested on: Leishmania donovani (MHOM/ET/67/L82 strain); test: Leishmania protozoa growth inhibition screening test; details: chemotherapy index = EC50 rat L6 cells / EC50 leishmania protozoa
[7] = tested on: Trypanosoma brucei rhodensiense (STIB 900 strain); test: African trypanosome protozoa growth inhibition screening test; details: Trypanosoma brucei, STIB900; STIB 900 strain, blood stream form, 72 hours, Alamar Blue; read-out: 50% growth inhibiting concentration Trypanosoma brucei rhod.
Method: In the present example, protozoa of Trypanosoma brucei rhodensiense (STIB 900 strain), a trypamastigote living in blood stream, was used. The medium used in the experiment was a MEM medium which was sterilized with a filter and supplemented with 25 mM N-2-hydroxyethylpiperazine-2-ethansulfonic acid […]), 1 g/L glucose, 1% MEM non-essential amino acid, 0.2 mM 2-mercaptoethanol, 2 mM sodium pyruvate, 0.1 mM hypoxanthine, and 15% heat-treated horse serum. The protozoa was cultured in an atmosphere of CO2 concentration 5%, at a temperature of 37° C.
The compounds of the present invention to be used in the present test and the positive target drug (melarsoprol) were dissolved in DMSO to make a test solution of a predetermined concentration. A medium containing 8×10^3 protozoa, and a test solution containing a drug of a predetermined concentration or a drug-free DMSO were added to wells of a 96-well culture plate, and subsequently, medium was added so that the amount in each well becomes 100 μL. Test solutions were taken by duplicates. After culturing the culture plate for 72 hours in an incubator, growth inhibition activity was tested. Test was conducted as follows. 10 μL of Alamar Blue aqueous solution was added to each well, and the resultant was further cultured for 2 hours. Next, the culture plate was placed on a fluorescent micro-plate reader (Spectramax Gemeni XS; US Molecular Device), radiated at an excited wavelength of 536 nm. Fluorescent intensity was measured at 588 nm, to calculate the trypanosome protozoa infected rate of the test solution added-group, and of the control group. From the protozoan infection rate obtained in the above, growth inhibition rate was calculated with the following formula, to obtain a 50% growth inhibition concentration (EC50). Growth inhibition rate (%)={1−(b−a)/(c−a)}×100 a: early infection rate b: infection rate when test solution was added c: infection rate of the control

[8] = tested on: Trypanosoma brucei rhodensiense (STIB 900 strain); test: as above; details: chemotherapy index = EC50 rat L6 cells / EC50 African trypanosome protozoa
[9] = tested on: Plasmodium falciparum K1 strain; test: Chloroquine resistant-Plasmodium falciparum growth inhibition screening test
Method: In the present example, protozoa of Plasmodium falciparum K1 strain was used. RPMI-1640 medium sterilized with a filter to which human serum was added to be 5%, was used in the experiment. Malarial parasites were cultured under 3% O2 concentration, 4% Co2 concentration, 93% N2 concentration, and at a temperature of 37° C.
The compounds of the present invention to be used in the present test and the positive target drug (chloroquine) were dissolved in DMSO to make a test solution of a predetermined concentration. Cultured malarial parasite infected-erythrocytes were collected by centrifugation, and diluted with non-infected erythrocyte so that the early infection rate is 0.15%. Hematocrit level at that time was 2.5%. 200 μL of malaria infected solution was added to wells of a 96-well culture plate, and adjusted by adding a test solution containing drug of a predetermined concentration or a drug-free DMSO. Test solutions were taken by duplicates. After culturing for 48 hours at 37° C., 0.5 μCi radioactive tritium (3H)-labeled hypoxanthine was added to each well. After further culturing for 24 hours under the same conditions, it was collected on a glass fiber filter and washed with distilled water. Radiation intensity was measured with a beta plate liquid scintillation counter (Wallac), and malarial parasite infection rates of the test solution added group and of the control group were calculated. Growth inhibition rate was calculated with the following formula based on the malarial parasite infection rate obtained in the above, to obtain a 50% growth inhibition concentration (EC50). Growth inhibition rate (%)={1−(b−a)/(c−a)}×100 a: early infection rate b: infection rate when test solution was added c: infection rate of the control

[10] = drug sensitive FCR-3 strain, infected erythrocytes, cultured 72 hours, microscopy

In the case of `CCn1c(=O)/c(=C/C=C2\Sc3ccc4ccccc4c3N2C)s/c1=C\c1sc2ccc3ccccc3c2[n+]1CC` [A-2], the EC50 [1, 10] is reported as 100 nM, the Selective toxicity [1] is reported as 8 and the EC50 at 48 h ([2]; mouse) is reported as 800 nM.
Work on `CCn1c(=O)/c(=C/C=C2\Sc3ccc4ccccc4c3N2C)s/c1=C\c1scc(C)[n+]1CC` [A-3] yielded an EC50 [1, 10] of 75 nM, a Selective toxicity [1] of 20 and an EC50 at 48 h ([2]; mouse) of 1500 nM.
With `CCN1C=CC=C/C1=C\C=c1/s/c(=C\c2cc[n+](CC)c3ccccc23)n(CC)c1=O` [A-11] the EC50 [1, 10] was 600 nM, the Selective toxicity [1] was >23 and the EC50 at 48 h ([2]; mouse) was > 14000 nM.
`CCC[n+]1c(/C=c2\s/c(=C\C=C3/SCCN3CC)c(=O)n2CC)sc2c3ccccc3ccc21` [A-16] gave an EC50 at 72 h ([3]; Alamar Blue (Table 3), read-out: 50% growth inhibiting concentration Cytotoxicity L6) of 940 nM, an EC50 [4] of 8 nM and an EC50 ([5]; Trypanosoma cruzi, Tulahuen C2C4 strain in rat L6 cells, 96 hours, CPRG/Nonidet, read-out: 50% growth inhibition concentration Trypanosoma cruzi) of 90 nM. For the same molecule, the Selective toxicity ([5]; chemotherapy index = EC50 rat L6 cells / EC50 American trypanosome protozoa) was 10, the Selective toxicity [6] was 120 and the EC50 [7] was 30 nM. It also gave a Selective toxicity [8] of 31.
Molecule `CCN1CCS/C1=C\C=c1/s/c(=C\c2sc3c4ccccc4ccc3[n+]2CCO)n(CC)c1=O` [A-17] has an EC50 at 72 h ([3]; Alamar Blue (Table 2), read-out: 50% growth inhibition concentration Cytotoxicity L6) of 53000 nM, an EC50 ([9]; Plasmodium falciparum, 72 h, chloroquine resistant K1 strain, 3H-hypoxanthine, 48 + 24 hours, read-out: 50% growth inhibition concentration P. falciparum K1) of 38 nM and a Selective toxicity ([9]; chemotherapy index = EC50 rat L6 cells / EC50 chloroquine resistant P. falciparum) of 1400. For the same molecule, the EC50 [4] was 11 nM, the Selective toxicity [6] was 4800 and the EC50 [7] was 93 nM. For the same molecule, the Selective toxicity [8] was 570.
For `CCN(CC)CCCC(C)Nc1ccnc2cc(Cl)ccc12` (centres unmarked) [chloroquine, reference compound], the EC50 ([1]; 72 h) was 18 nM, the Selective toxicity [1] was 1780 and the EC50 at 48 h ([2]; mouse FM3A cells, 48 hours, cell count (Table 1), read-out: 50% growth inhibition concentration Cytotoxicity FM3A) was 32000 nM.
Work on `C=C[C@H]1C[N@@]2CC[C@H]1C[C@H]2[C@H](O)c1ccnc2ccc(OC)cc12` [quinine, reference compound] yielded an EC50 [1, 10] of 110 nM, a Selective toxicity [1] of 910 and an EC50 at 48 h ([2]; mouse) of 100000 nM.
